What was measured:
[1] = absolute recovery over vacuum-assisted evaporative concentration; higher = better recovery; settings: enrichment method: VEC
Method in brief: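 After spiking with standards before concentration, after concentration or not at all, at 1000 ng/L for wastewater or 200 ng/L for nanopure and surface water with class- and compound-specific adjustments, samples of 6 mL influent, 15 mL effluent and 60 mL surface or nanopure water were evaporated at 55 °C and 20 mbar to about 0.3 mL. They were brought to 0.4 mL, centrifuged, given internal standards and analysed by LC-HRMS/MS. Absolute recovery, (response ratio pre − unspiked)/(post − unspiked) × 100, used averages of ≥ 2 replicates.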

[2] = absolute recovery over mixed-bed multilayer solid-phase extraction; higher = better recovery; settings: enrichment method: SPE
Method in brief: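 Wastewater (100–250 mL, pH 6.5, glass-fibre filtered) and unfiltered nanopure water (1000 mL) were extracted on a three-layer mixed-bed cartridge, with standards spiked before extraction, after it, or not at all at 1000 ng/L and 200 ng/L respectively, apart from some classes. Internal standards were then added for liquid chromatography with high-resolution tandem mass spectrometry in both ionisation modes. Absolute recovery compares background-corrected response ratios of pre- and post-spiked samples across at least two replicates.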

[3] = LC retention time (Atlantis T3, 5-95% MeOH gradient, 0.1% formic acid); higher = more retained / less polar
Method in brief: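 Retention times were recorded for reference standards on a polar reversed-phase C18 column. The standards were of purity ≥ 95%, and the Atlantis T3 column (3 × 150 mm, 3 μm) was run at 0.3 mL/min with a gradient from 5 to 95% methanol over 17.5 min, both water and methanol containing 0.1% formic acid. Detection used high-resolution tandem mass spectrometry on a QExactive Plus, with positive and negative electrospray in separate runs, and peaks were integrated in TraceFinder (5 ppm tolerance, at least three points per peak) before being checked by hand.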

SMILES | absolute recovery ([1]; wastewater effluent) [%] | absolute recovery ([1]; wastewater influent) [%] | absolute recovery ([2]; surface water) [%] | absolute recovery ([2]; wastewater effluent) [%] | absolute recovery ([2]; wastewater influent) [%] | LC retention time [3] [min] | absolute recovery ([2]; nanopure water) [%]
CON=C(C(=O)OC)c1ccccc1CON=C(C)c1cccc(C(F)(F)F)c1 [Trifloxystrobin] | 77.4 | 97.5 | 97.3 | 88.9 | 99.8 | 21.4 | 
CCCOCC(=Nc1ccc(Cl)cc1C(F)(F)F)n1ccnc1 [Triflumizole] | 93.9 | 114 | 104 | 97.8 | 61.8 | 21.3 | 85.9
COC(=O)c1cccc(C)c1S(=O)(=O)[N-]C(=O)Nc1nc(OCC(F)(F)F)nc(N(C)C)n1 [Triflusulfuron-methyl] | 106 | 108 | 102 | 93.1 | 90.6 | 19.4 | 103
CC(CN1c2ccccc2CCc2ccccc21)C[NH+](C)C (stereo unspecified) [Trimipramin] | 101 | 104 | 102 | 95.3 | 54.3 | 16.2 | 89.9
O=C1CC(C(=O)[O-])CC(=O)C1=C([O-])C1CC1 (stereo unspecified) [Trinexapac (free acid)] | 108 | 93 | 36.1 | 78.5 | 77 | 16.6 | 76.1
CCOC(=O)C1CC(=O)C(=C([O-])C2CC2)C(=O)C1 (stereo unspecified) [Trinexapac-ethyl] | 102 | 93.4 | 93.1 | 90.1 | 93.2 | 18.8 | 93.6
COc1nc(NC(=O)[N-]S(=O)(=O)c2ccccc2C(F)(F)F)nc(C(F)(F)F)n1 [Tritosulfuron] | 94.7 | 101 | 93.4 | 90.7 | 103 | 19.6 | 97
O=C(OC1CC2CCC(C1)[N+]21CCCC1)C(O)(c1ccccc1)c1ccccc1 (stereo unspecified) [Trospium] | 99.2 | 103 | 91.7 | 91.1 | 87.3 | 13.7 | 85.5
CCC1OC(=O)CC(O)C(C)C(OC2OC(C)C(OC3CC(C)(O)C(O)C(C)O3)C([NH+](C)C)C2O)C(CC=O)CC(C)C(=O)C=CC(C)=CC1COC1OC(C)C(O)C(OC)C1OC (stereo unspecified) [Tylosin] | 66.4 | 77.5 | 56.4 | 64.9 | 72.2 | 15.8 | 65.9
CC(CCC(=O)[O-])C1CCC2C3C(O)CC4CC(O)CCC4(C)C3CCC12C (stereo unspecified) [Ursodeoxycholic-acid] | 97 |  |  | 79.2 |  | 21.1 | 73.8
CC(C)C([NH3+])C(=O)OCC(CO)OCn1cnc2c(=O)[nH+]c(N)[nH]c21 (stereo unspecified) [Valganciclovir] | 83.6 | 72.2 | 63.7 | 69.7 | 69.5 | 7.61 | 82.7
COc1ccc(C(C[NH+](C)C)C2(O)CCCCC2)cc1 (stereo unspecified) [Venlafaxin] | 106 | 100 | 96.8 | 93.3 | 99.1 | 14 | 95.3

Second part, the compound after the results:

absolute recovery ([1]; wastewater effluent) [%] | absolute recovery ([1]; wastewater influent) [%] | absolute recovery ([2]; surface water) [%] | absolute recovery ([2]; wastewater effluent) [%] | absolute recovery ([2]; wastewater influent) [%] | LC retention time [3] [min] | absolute recovery ([2]; nanopure water) [%] | SMILES
 | 104 | 101 |  | 95.2 | 16.4 | 96.4 | O=C([O-])c1ccc(-c2ccccc2-c2nn[nH]n2)cc1 [Valsartan-acid]
103 |  | 101 | 91 |  | 19.6 | 95.8 | CCCCC(=O)N(Cc1ccc(-c2ccccc2-c2nnn[n-]2)cc1)C(C(=O)[O-])C(C)C (stereo unspecified) [Valsartan]
108 | 109 | 90.4 | 82 | 92.8 | 9.01 | 108 | C[NH2+]C(CC(C)C)C(=O)NC1C(=O)NC(CC(N)=O)C(=O)NC2C(=O)NC3C(=O)NC(C(=O)NC(C(=O)[O-])c4cc(O)cc(O)c4-c4cc3ccc4O)C(O)c3ccc(c(Cl)c3)Oc3cc2cc(c3OC2OC(CO)C(O)C(O)C2OC2CC(C)([NH3+])C(O)C(C)O2)Oc2ccc(cc2Cl)C1O (stereo unspecified) [Vancomycin]
105 | 107 | 92.8 | 94.6 | 79.7 | 14.6 | 93.2 | COc1ccc(C(C[N+](C)(C)[O-])C2(O)CCCCC2)cc1 (stereo unspecified) [Venlafaxine-N-Oxide]
105 | 102 | 94.1 | 92.8 | 93.2 | 8.73 | 92.8 | N#CC1CCCN1C(=O)C[NH2+]C12CC3CC(CC(O)(C3)C1)C2 (stereo unspecified) [Vildagliptin]
103 | 108 |  |  |  | 3.84 | 1.5 | C=CS(=O)(=O)[O-] [Vinylsulfonic-acid]
102 | 106 | 84 | 85.4 | 97.2 | 15.7 | 87.3 | Cc1cc(C(C)(C)C)cc(C)c1CC1=[NH+]CCN1 [Xylometazolin]
103 | 104 | 93.4 | 93.9 | 97.1 | 13.1 | 98.2 | Cc1cn(C2CC(N=[N+]=[N-])C(CO)O2)c(=O)[nH]c1=O (stereo unspecified) [Zidovudine]
103 | 101 | 88.8 | 88.4 | 107 | 13.1 | 84.8 | NS(=O)(=O)Cc1noc2ccccc12 [Zonisamide]

Reference: the supplement of paper PMC6470124
